Measured values: the supplement of paper PMC11208160
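Also: IS621 recombinase and bridge RNA in Escherichia coli cells.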

Experiment: recombinant barcode read abundance after kanamycin selection (control-corrected) (log10(CPM+1)); higher = more efficient recombination; sequences stand for … in AGTGCAGAGAAAATCGGCCAGTTTTCTCTGCCTGCAGTCCGCATGCCGT…AGATTTATGCAGCGGACTGCCTTTCTCCCAAAGTGATAAACCGGACAGTATCATGGACCGGTTTTCCCGGTAATCCGTATTTGCAAGGTTGGTTTCACT; site = the 11-nt target
Method in brief: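 Recombination efficiency in this pooled E. coli screen uses counts per million of barcodes at recombinant junctions, averaged and corrected against the control. The reported form is log10(CPM+1). Two replicates were plated on chloramphenicol/ampicillin LB agar as control and two on chloramphenicol/ampicillin/kanamycin with 0.1 mM IPTG.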
With “TCTAATTCTTGGGTTCTAACCTGTTGCGT (site TCTTATTCTAC)” the “recombinant barcode read abundance (log10)” value was 0.047.
With “TCTAGAGCTTGGGTTCTAACCTGTTGCCT (site TCTAGAACTAG)” the “recombinant barcode read abundance (log10)” value was 0.0712.
For “TCTAGAGCTTGGGTTCTAACCTGTTGCCT (site TCTAGACCTAG)”, the “recombinant barcode read abundance (log10)” value was 0.228.
With “TCTAGAGCTTGGGTTCTAACCTGTTGCCT (site TCTAGAGCTAG)” the “recombinant barcode read abundance (log10)” value was 0.0183.
For “TCTAGAGCTTGGGTTCTAACCTGTTGCCT (site TCTAGATCTAG)”, the “recombinant barcode read abundance (log10)” value was 0.339.
For “TCTAGGACTTGGGTTCTAACCTGTTGCAA (site CGACAATCTAA)”, the “recombinant barcode read abundance (log10)” value was 0.29.
For “TCTAGGACTTGGGTTCTAACCTGTTGCAA (site TCTAGGACTTT)”, the “recombinant barcode read abundance (log10)” value was 0.52.
In the case of “TCTCACGCTTGGGTTCTAACCTGTTGCCT (site TCGCACGCTAG)”, the “recombinant barcode read abundance (log10)” value is reported as 0.0772.
With “TCTCACGCTTGGGTTCTAACCTGTTGCCT (site TCTCACGCTAG)” the “recombinant barcode read abundance (log10)” value was 0.964.
In the case of “TCTCACTCTTGGGTTCTAACCTGTTGCCT (site TCACACTCTAG)”, the “recombinant barcode read abundance (log10)” value is reported as 0.0111.
For “TCTCACTCTTGGGTTCTAACCTGTTGCCT (site TCCCACTCTAG)”, the “recombinant barcode read abundance (log10)” value was 0.504.
In the case of “TCTCACTCTTGGGTTCTAACCTGTTGCCT (site TCGCACTCTAG)”, the “recombinant barcode read abundance (log10)” value is reported as 0.0924.
With “TCTCACTCTTGGGTTCTAACCTGTTGCCT (site TCTCACTCTAG)” the “recombinant barcode read abundance (log10)” value was 1.54.
With “TCTCATGCTTGGGTTCTAACCTGTTGCAT (site GACGGCACTCC)” the “recombinant barcode read abundance (log10)” value was 0.0135.
For “TCTCATGCTTGGGTTCTAACCTGTTGCAT (site TCTCATGCTAT)”, the “recombinant barcode read abundance (log10)” value was 0.224.
In the case of “TCTCGGCCTTGGGTTCTAACCTGTTGCCT (site TCTCAGCCTAG)”, the “recombinant barcode read abundance (log10)” value is reported as 0.0701.
For “TCTCGGCCTTGGGTTCTAACCTGTTGCCT (site TCTCCGCCTAG)”, the “recombinant barcode read abundance (log10)” value was 0.394.
In the case of “TCTCGGCCTTGGGTTCTAACCTGTTGCCT (site TCTCGGCCTAG)”, the “recombinant barcode read abundance (log10)” value is reported as 0.202.
With “TCTCGGCCTTGGGTTCTAACCTGTTGCCT (site TCTCTGCCTAG)” the “recombinant barcode read abundance (log10)” value was 0.0561.
For “TCTGACTCTTGGGTTCTAACCTGTTGCAT (site TCTAATTCTAT)”, the “recombinant barcode read abundance (log10)” value was 0.0501.
With “TCTGACTCTTGGGTTCTAACCTGTTGCAT (site TCTGACTCTAT)” the “recombinant barcode read abundance (log10)” value was 1.59.
With “TCTGAGTCTTGGGTTCTAACCTGTTGCTG (site GCTGAGGCTCA)” the “recombinant barcode read abundance (log10)” value was 0.141.
In the case of “TCTGAGTCTTGGGTTCTAACCTGTTGCTG (site TCTGAGTCTCA)”, the “recombinant barcode read abundance (log10)” value is reported as 0.858.
For “TCTGGAGCTTGGGTTCTAACCTGTTGCAG (site CCAGGAGCTCT)”, the “recombinant barcode read abundance (log10)” value was 0.0636.
For “TCTGGAGCTTGGGTTCTAACCTGTTGCAG (site TCTGGAGCTCT)”, the “recombinant barcode read abundance (log10)” value was 0.938.
With “TCTGGGGCTTGGGTTCTAACCTGTTGCCG (site TCTGGGGCTCA)” the “recombinant barcode read abundance (log10)” value was 0.536.
With “TCTGGGGCTTGGGTTCTAACCTGTTGCCG (site TCTGGGGCTCC)” the “recombinant barcode read abundance (log10)” value was 1.44.
With “TCTGGGGCTTGGGTTCTAACCTGTTGCCG (site TCTGGGGCTCG)” the “recombinant barcode read abundance (log10)” value was 1.89.
In the case of “TCTGGGGCTTGGGTTCTAACCTGTTGCCG (site TCTGGGGCTCT)”, the “recombinant barcode read abundance (log10)” value is reported as 0.618.
In the case of “TCTGGGGCTTGGGTTCTAACCTGTTGCTG (site TCTGGGGCTCA)”, the “recombinant barcode read abundance (log10)” value is reported as 2.04.
With “TCTGGGGCTTGGGTTCTAACCTGTTGCTG (site TCTGGGGCTCC)” the “recombinant barcode read abundance (log10)” value was 0.216.
With “TCTGGGGCTTGGGTTCTAACCTGTTGCTG (site TCTGGGGCTCG)” the “recombinant barcode read abundance (log10)” value was 0.792.
With “TCTGGGGCTTGGGTTCTAACCTGTTGCTG (site TCTGGGGCTCT)” the “recombinant barcode read abundance (log10)” value was 0.936.
In the case of “TCTTAGGCTTGGGTTCTAACCTGTTGCGT (site TCCTAGGCTGC)”, the “recombinant barcode read abundance (log10)” value is reported as 0.21.
With “TCTTAGGCTTGGGTTCTAACCTGTTGCGT (site TCTTAGGCTAC)” the “recombinant barcode read abundance (log10)” value was 1.63.
In the case of “TCTTATACTTGGGTTCTAACCTGTTGCGT (site TCTTATACTAC)”, the “recombinant barcode read abundance (log10)” value is reported as 0.403.
In the case of “TCTTATACTTGGGTTCTAACCTGTTGCGT (site TCTTATACTAT)”, the “recombinant barcode read abundance (log10)” value is reported as 0.
With “TCTTATTCTTGGGTTCTAACCTGTTGCCT (site TCTGATTCTCG)” the “recombinant barcode read abundance (log10)” value was 0.062.
With “TCTTATTCTTGGGTTCTAACCTGTTGCCT (site TCTTATTCTAG)” the “recombinant barcode read abundance (log10)” value was 0.0342.
For “TCTTGGACTTGGGTTCTAACCTGTTGCTG (site TCTTGGACTAA)”, the “recombinant barcode read abundance (log10)” value was 0.159.
In the case of “TCTTGGACTTGGGTTCTAACCTGTTGCTG (site TCTTGGACTCA)”, the “recombinant barcode read abundance (log10)” value is reported as 0.0828.
With “TCTTGGACTTGGGTTCTAACCTGTTGCTG (site TCTTGGACTGA)” the “recombinant barcode read abundance (log10)” value was 0.174.
In the case of “TCTTGGACTTGGGTTCTAACCTGTTGCTG (site TCTTGGACTTA)”, the “recombinant barcode read abundance (log10)” value is reported as 0.0733.
In the case of “TCTTGTTCTTGGGTTCTAACCTGTTGCCT (site ACTTGTTCTAG)”, the “recombinant barcode read abundance (log10)” value is reported as 0.383.
In the case of “TCTTGTTCTTGGGTTCTAACCTGTTGCCT (site CCTTGTTCTAG)”, the “recombinant barcode read abundance (log10)” value is reported as 0.179.
In the case of “TCTTGTTCTTGGGTTCTAACCTGTTGCCT (site GCTTGTTCTAG)”, the “recombinant barcode read abundance (log10)” value is reported as 0.0895.
For “TCTTGTTCTTGGGTTCTAACCTGTTGCCT (site TCTTGTTCTAG)”, the “recombinant barcode read abundance (log10)” value was 0.145.
For “TGAAATACTTGGGTTCTAACCTGTTGCCT (site TGAAATACTAG)”, the “recombinant barcode read abundance (log10)” value was 0.232.
In the case of “TGAAATACTTGGGTTCTAACCTGTTGCCT (site TGAACTACTAG)”, the “recombinant barcode read abundance (log10)” value is reported as 0.0246.
With “TGAAATACTTGGGTTCTAACCTGTTGCCT (site TGAAGTACTAG)” the “recombinant barcode read abundance (log10)” value was 0.
In the case of “TGAAATACTTGGGTTCTAACCTGTTGCCT (site TGAATTACTAG)”, the “recombinant barcode read abundance (log10)” value is reported as 0.00965.
In the case of “TGAAATGCTTGGGTTCTAACCTGTTGCCT (site TGAAATGCTAG)”, the “recombinant barcode read abundance (log10)” value is reported as 0.329.
For “TGAAATGCTTGGGTTCTAACCTGTTGCCT (site TGACATGCTAG)”, the “recombinant barcode read abundance (log10)” value was 0.0158.
In the case of “TGAAATGCTTGGGTTCTAACCTGTTGCCT (site TGAGATGCTAG)”, the “recombinant barcode read abundance (log10)” value is reported as 0.256.
With “TGAAATGCTTGGGTTCTAACCTGTTGCCT (site TGATATGCTAG)” the “recombinant barcode read abundance (log10)” value was 0.288.
For “TGAACGCCTTGGGTTCTAACCTGTTGCCT (site AGTACGCCTAG)”, the “recombinant barcode read abundance (log10)” value was 0.0861.
In the case of “TGAACGCCTTGGGTTCTAACCTGTTGCCT (site TGAACGCCTAG)”, the “recombinant barcode read abundance (log10)” value is reported as 0.39.
With “TGAACGTCTTGGGTTCTAACCTGTTGCCT (site TGAAAGTCTAG)” the “recombinant barcode read abundance (log10)” value was 0.232.
With “TGAACGTCTTGGGTTCTAACCTGTTGCCT (site TGAACGTCTAG)” the “recombinant barcode read abundance (log10)” value was 0.384.
In the case of “TGAACGTCTTGGGTTCTAACCTGTTGCCT (site TGAAGGTCTAG)”, the “recombinant barcode read abundance (log10)” value is reported as 0.0344.
With “TGAACGTCTTGGGTTCTAACCTGTTGCCT (site TGAATGTCTAG)” the “recombinant barcode read abundance (log10)” value was 0.378.
In the case of “TGAACTACTTGGGTTCTAACCTGTTGCCT (site TGAAATACTAG)”, the “recombinant barcode read abundance (log10)” value is reported as 0.0445.
For “TGAACTACTTGGGTTCTAACCTGTTGCCT (site TGAACTACTAG)”, the “recombinant barcode read abundance (log10)” value was 0.192.
With “TGAACTACTTGGGTTCTAACCTGTTGCCT (site TGAAGTACTAG)” the “recombinant barcode read abundance (log10)” value was 0.0835.
For “TGAACTACTTGGGTTCTAACCTGTTGCCT (site TGAATTACTAG)”, the “recombinant barcode read abundance (log10)” value was 0.065.
For “TGAAGTCCTTGGGTTCTAACCTGTTGCGG (site CGACGTCCTCC)”, the “recombinant barcode read abundance (log10)” value was 0.0219.
In the case of “TGAAGTCCTTGGGTTCTAACCTGTTGCGG (site TGAAGTCCTCC)”, the “recombinant barcode read abundance (log10)” value is reported as 1.25.
In the case of “TGACAGGCTTGGGTTCTAACCTGTTGCAG (site GTACAGGCTCT)”, the “recombinant barcode read abundance (log10)” value is reported as 0.278.
For “TGACAGGCTTGGGTTCTAACCTGTTGCAG (site TGACAGGCTCT)”, the “recombinant barcode read abundance (log10)” value was 1.88.
With “TGACCAGCTTGGGTTCTAACCTGTTGCCT (site TGACCAGCTAG)” the “recombinant barcode read abundance (log10)” value was 1.05.
In the case of “TGACCAGCTTGGGTTCTAACCTGTTGCCT (site TGAGAAGCTAG)”, the “recombinant barcode read abundance (log10)” value is reported as 0.0639.
For “TGACCTTCTTGGGTTCTAACCTGTTGCCT (site TGACCTTCTAG)”, the “recombinant barcode read abundance (log10)” value was 0.526.
With “TGACCTTCTTGGGTTCTAACCTGTTGCCT (site TGACGTTCTAG)” the “recombinant barcode read abundance (log10)” value was 0.0226.
With “TGACGCTCTTGGGTTCTAACCTGTTGCCT (site TGACGCTCTAG)” the “recombinant barcode read abundance (log10)” value was 0.905.
With “TGACGCTCTTGGGTTCTAACCTGTTGCCT (site TGCCGCTCTAG)” the “recombinant barcode read abundance (log10)” value was 0.149.
For “TGACGCTCTTGGGTTCTAACCTGTTGCCT (site TGGCGCTCTAG)”, the “recombinant barcode read abundance (log10)” value was 0.323.
For “TGACGCTCTTGGGTTCTAACCTGTTGCCT (site TGTCGCTCTAG)”, the “recombinant barcode read abundance (log10)” value was 0.433.
